Assays:
[1] = In vitro human intestinal S9 hydrolysis assay (formation of compound 1-1); conditions: human intestinal S9, 1 uM, 37° C., up to 60 minutes
[2] = target: VMAT2 (human platelet homogenate) (Homo sapiens (Human), UniProt Q05940); assay: Human VMAT2 Ki, slightly modified competition binding procedure (Table 11); conditions: 10 nM 3H-dihydrotetrabenazine;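 further: competition binding with 90 min incubation at 25 °C, after which filter-retained radioligand was measured by scintillation counting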
VMAT2 (human platelet homogenate), sequence (Q05940 whole entry): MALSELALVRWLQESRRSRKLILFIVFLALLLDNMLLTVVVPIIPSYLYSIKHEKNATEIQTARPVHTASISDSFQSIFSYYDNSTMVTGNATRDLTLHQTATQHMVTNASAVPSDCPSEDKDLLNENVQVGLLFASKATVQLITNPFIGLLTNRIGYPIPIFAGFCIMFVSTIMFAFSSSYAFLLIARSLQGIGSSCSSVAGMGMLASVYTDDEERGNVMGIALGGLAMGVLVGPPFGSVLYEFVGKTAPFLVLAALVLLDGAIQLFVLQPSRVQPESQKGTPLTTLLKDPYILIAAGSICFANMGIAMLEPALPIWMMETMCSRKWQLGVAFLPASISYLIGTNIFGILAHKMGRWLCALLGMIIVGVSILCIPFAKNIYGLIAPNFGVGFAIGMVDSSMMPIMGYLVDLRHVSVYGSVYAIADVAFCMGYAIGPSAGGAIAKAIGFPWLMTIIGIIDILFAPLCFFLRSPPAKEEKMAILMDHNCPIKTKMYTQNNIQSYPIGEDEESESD
Method: Following incubation at 25° C. for 90 minutes, bound radioligand was collected by rapid filtration onto GF/B glass fiber filters using a Unifilter-96 Harvester (PerkinElmer). Filter plates were pre-treated with 0.1% polyethylenimine and allowed to dry overnight, and following harvesting the filter plates were washed with 800 d VMAT2 binding buffer. Bound radioligand was quantified by scintillation counting using a Topcount NXT (PerkinElmer).

With COc1cc2c(cc1OC)[C@H]1C[C@@H](COC(=O)N3CCOC(CN(C)C)C3)[C@H](CC(C)C)CN1CC2 (stereo partly drawn) [Compound 5-4, [(2R,3S,11bR)-9,10-dimethoxy-3-(2-methylpropyl)-1H,2H,3H,4H,6H,7H,11bH-pyrido[2,1-a]isoquinolin-2-yl]methyl 2-[(dimethylamino)methyl]morpholine-4-carboxylate] the “S9 Assay (ability to form compound 1-1)” value [1] was “+” and the Ki [2] was < 10 nM.

With COc1cc2c(cc1OC)[C@H]1C[C@@H](COC(=O)CCCCC(=O)O)[C@H](CC(C)C)CN1CC2 [Compound 3-10] the “S9 Assay (ability to form compound 1-1)” value [1] was “+++” and the Ki [2] was > 500 nM.

With COc1cc2c(cc1OC)[C@H]1C[C@@H](COC(=O)NCC3(CC(=O)O)CCCCC3)[C@H](CC(C)C)CN1CC2 [Compound 5-34, 2-(1-{[({[(2R,3S,11bR)-9,10-dimethoxy-3-(2-methylpropyl)-1H,2H,3H,4H,6H,7H,11bH-pyrido[2,1-a]isoquinolin-2-yl]methoxy}carbonyl)amino]methyl}cyclohexyl)acetic acid] the “S9 Assay (ability to form compound 1-1)” value [1] was “+” and the Ki [2] was 10 to 500 nM.

With COc1cc2c(cc1OC)[C@H]1C[C@@H](COC(=O)NCCC(=O)O)[C@H](CC(C)C)CN1CC2 [Compound 5-1, 3-[({[(2R,3S,11bR)-9,10-dimethoxy-3-(2-methylpropyl)-1H,2H,3H,4H,6H,7H,11bH-pyrido[2,1-a]isoquinolin-2-yl]methoxy}carbonyl)amino]propanoic acid] the “S9 Assay (ability to form compound 1-1)” value [1] was “+” and the Ki [2] was < 10 nM.

With COc1cc2c(cc1OC)[C@H]1C[C@@H](COC(=O)CC3CCNC3)[C@H](CC(C)C)CN1CC2 (stereo partly drawn) [Compound 4-16, [(2R,3S,11bR)-9,10-dimethoxy-3-(2-methylpropyl)-1H,2H,3H,4H,6H,7H,11bH-pyrido[2,1-a]isoquinolin-2-yl]methyl 2-(pyrrolidin-3-yl)acetate] the “S9 Assay (ability to form compound 1-1)” value [1] was “+” and the Ki [2] was < 10 nM.

In the case of COc1cc2c(cc1OC)[C@H]1C[C@@H](COC(=O)CC(C)(C)CC(=O)O)[C@H](CC(C)C)CN1CC2 [Compound 3-1, 5-{[(2R,3S,11bR)-9,10-dimethoxy-3-(2-methylpropyl)-1H,2H,3H,4H,6H,7H,11bH-pyrido[2,1-a]isoquinolin-2-yl]methoxy}-3,3-dimethyl-5-oxopentanoic acid], the “S9 Assay (ability to form compound 1-1)” value [1] is reported as “+” and the Ki [2] is reported as > 500 nM.

For COc1cc2c(cc1OC)[C@H]1C[C@@H](COC(=O)[C@H]3CCNC3)[C@H](CC(C)C)CN1CC2 [Compound 4-7, [(2R,3S,11bR)-9,10-dimethoxy-3-(2-methylpropyl)-1H,2H,3H,4H,6H,7H,11bH-pyrido[2,1-a]isoquinolin-2-yl]methyl (3S)-pyrrolidine-3-carboxylate], the “S9 Assay (ability to form compound 1-1)” value [1] was “++” and the Ki [2] was < 10 nM.

In the case of COc1cc2c(cc1OC)[C@H]1C[C@@H](COC(=O)CCC(=O)O)[C@H](CC(C)C)CN1CC2 [Compound 3-13], the “S9 Assay (ability to form compound 1-1)” value [1] is reported as “++” and the Ki [2] is reported as 10 to 500 nM.

For COc1cc2c(cc1OC)[C@H]1C[C@@H](COC(=O)N[C@H]3[C@@H](C(=O)O)[C@H]4C=C[C@@H]3C4)[C@H](CC(C)C)CN1CC2 [Compound 5-9, (1R,2S,3R,4S)-3-[({[(2R,3S,11bR)-9,10-dimethoxy-3-(2-methylpropyl)-1H,2H,3H,4H,6H,7H,11bH-pyrido[2,1-a]isoquinolin-2-yl]methoxy}carbonyl)amino]bicyclo[2.2.1]hept-5-ene-2-carboxylic acid], the “S9 Assay (ability to form compound 1-1)” value [1] was “+” and the Ki [2] was > 500 nM.

In the case of COc1cc2c(cc1OC)[C@H]1C[C@@H](COC(=O)C(C)(C)CC(=O)O)[C@H](CC(C)C)CN1CC2 [Compound 3-11], the “S9 Assay (ability to form compound 1-1)” value [1] is reported as “++” and the Ki [2] is reported as > 500 nM.

For COc1cc2c(cc1OC)[C@H]1C[C@@H](COC(=O)N3CCCC(C(=O)O)C3)[C@H](CC(C)C)CN1CC2 (stereo partly drawn) [Compound 5-14, 1-({[(2R,3S,11bR)-9,10-dimethoxy-3-(2-methylpropyl)-1H,2H,3H,4H,6H,7H,11bH-pyrido[2,1-a]isoquinolin-2-yl]methoxy}carbonyl)piperidine-3-carboxylic acid], the “S9 Assay (ability to form compound 1-1)” value [1] was “+” and the Ki [2] was > 500 nM.

For COc1cc2c(cc1OC)[C@H]1C[C@@H](COC(=O)C3CCNCC3C)[C@H](CC(C)C)CN1CC2 (stereo partly drawn) [Compound 4-15, [(2R,3S,11bR)-9,10-dimethoxy-3-(2-methylpropyl)-1H,2H,3H,4H,6H,7H,11bH-pyrido[2,1-a]isoquinolin-2-yl]methyl 3-methylpiperidine-4-carboxylate], the “S9 Assay (ability to form compound 1-1)” value [1] was “+” and the Ki [2] was < 10 nM.

With COc1cc2c(cc1OC)[C@H]1C[C@@H](COC(=O)N3CCNC[C@H]3C)[C@H](CC(C)C)CN1CC2 [Compound 6-3, [(2R,3S,11bR)-9,10-dimethoxy-3-(2-methylpropyl)-1H,2H,3H,4H,6H,7H,11bH-pyrido[2,1-a]isoquinolin-2-yl]methyl (2R)-2-methylpiperazine-1-carboxylate] the “S9 Assay (ability to form compound 1-1)” value [1] was “+”.

With COc1cc2c(cc1OC)[C@H]1C[C@@H](COC(=O)C3CCCNC3)[C@H](CC(C)C)CN1CC2 (stereo partly drawn) [Compound 4-20, [(2R,3S,11bR)-9,10-dimethoxy-3-(2-methylpropyl)-1H,2H,3H,4H,6H,7H,11bH-pyrido[2,1-a]isoquinolin-2-yl]methyl piperidine-3-carboxylate] the Ki [2] was < 10 nM.

With COc1cc2c(cc1OC)[C@H]1C[C@@H](COC(=O)CS(=O)(=O)O)[C@H](CC(C)C)CN1CC2 [Compound 2-35, 2-{[(2R,3S,11bR)-9,10-dimethoxy-3-(2-methylpropyl)-1H,2H,3H,4H,6H,7H,11bH-pyrido[2,1-a]isoquinolin-2-yl]methoxy}-2-oxoethane-1-sulfonic acid] the Ki [2] was > 500 nM.

For COc1cc2c(cc1OC)[C@H]1C[C@@H](COC(=O)C3CN(Cc4ccccc4)C3)[C@H](CC(C)C)CN1CC2 [Compound 2-21, [(2R,3S,11bR)-9,10-dimethoxy-3-(2-methylpropyl)-1H,2H,3H,4H,6H,7H,11bH-pyrido[2,1-a]isoquinolin-2-yl]methyl 1-benzylazetidine-3-carboxylate], the Ki [2] was < 10 nM.

For COc1cc2c(cc1OC)[C@H]1C[C@@H](COC(=O)[C@@H](N)c3ccccc3)[C@H](CC(C)C)CN1CC2 [Compound 4-33, [(2R,3S,11bR)-9,10-dimethoxy-3-(2-methylpropyl)-1H,2H,3H,4H,6H,7H,11bH-pyrido[2,1-a]isoquinolin-2-yl]methyl (2S)-2-amino-2-phenylacetate], the Ki [2] was 10 to 500 nM.

With COc1cc2c(cc1OC)[C@H]1C[C@@H](COC(=O)CCN3CCN(C)CC3)[C@H](CC(C)C)CN1CC2 [Compound 2-15, [(2R,3S,11bR)-9,10-dimethoxy-3-(2-methylpropyl)-1H,2H,3H,4H,6H,7H,11bH-pyrido[2,1-a]isoquinolin-2-yl]methyl 3-(4-methylpiperazin-1-yl)propanoate] the Ki [2] was < 10 nM.

With COc1cc2c(cc1OC)[C@H]1C[C@@H](COC(=O)C[C@@H]3NC(=O)NC3=O)[C@H](CC(C)C)CN1CC2 [Compound 2-33, [(2R,3S,11bR)-9,10-dimethoxy-3-(2-methylpropyl)-1H,2H,3H,4H,6H,7H,11bH-pyrido[2,1-a]isoquinolin-2-yl]methyl 2-[(4S)-2,5-dioxoimidazolidin-4-yl]acetate] the Ki [2] was 10 to 500 nM.

For COc1cc2c(cc1OC)[C@H]1C[C@@H](COC(=O)C3(C)CCNCC3)[C@H](CC(C)C)CN1CC2 [Compound 4-35, [(2R,3S,11bR)-9,10-dimethoxy-3-(2-methylpropyl)-1H,2H,3H,4H,6H,7H,11bH-pyrido[2,1-a]isoquinolin-2-yl]methyl 4-methylpiperidine-4-carboxylate], the Ki [2] was < 10 nM.

COc1cc2c(cc1OC)[C@H]1C[C@@H](COC(=O)N3CCN(S(C)(=O)=O)CC3)[C@H](CC(C)C)CN1CC2 [Compound 5-15, [(2R,3S,11bR)-9,10-dimethoxy-3-(2-methylpropyl)-1H,2H,3H,4H,6H,7H,11bH-pyrido[2,1-a]isoquinolin-2-yl]methyl 4-methanesulfonylpiperazine-1-carboxylate] gave a Ki [2] of 10 to 500 nM.

With COc1cc2c(cc1OC)[C@H]1C[C@@H](COC(=O)N3CCN[C@H](C#N)C3)[C@H](CC(C)C)CN1CC2 [Compound 6-9, [(2R,3S,11bR)-9,10-dimethoxy-3-(2-methylpropyl)-1H,2H,3H,4H,6H,7H,11bH-pyrido[2,1-a]isoquinolin-2-yl]methyl (3S)-3-cyanopiperazine-1-carboxylate] the Ki [2] was < 10 nM.

For COc1cc2c(cc1OC)[C@H]1C[C@@H](COC[C@@H]3CCCN3)[C@H](CC(C)C)CN1CC2 [Compound 10-4, (2S)-2-({[(2R,3S,11bR)-9,10-dimethoxy-3-(2-methylpropyl)-1H,2H,3H,4H,6H,7H,11bH-pyrido[2,1-a]isoquinolin-2-yl]methoxy}methyl)pyrrolidine], the Ki [2] was < 10 nM.

For COc1cc2c(cc1OC)[C@H]1C[C@@H](COC(=O)N3CCN(C(C)C)CC3)[C@H](CC(C)C)CN1CC2 [Compound 5-31, [(2R,3S,11bR)-9,10-dimethoxy-3-(2-methylpropyl)-1H,2H,3H,4H,6H,7H,11bH-pyrido[2,1-a]isoquinolin-2-yl]methyl 4-(propan-2-yl)piperazine-1-carboxylate], the Ki [2] was < 10 nM.

For COc1cc2c(cc1OC)[C@H]1C[C@@H](COC(=O)N3C[C@H](C)NC[C@H]3C)[C@H](CC(C)C)CN1CC2 [Compound 6-2, [(2R,3S,11bR)-9,10-dimethoxy-3-(2-methylpropyl)-1H,2H,3H,4H,6H,7H,11bH-pyrido[2,1-a]isoquinolin-2-yl]methyl (2R,5S)-2,5-dimethylpiperazine-1-carboxylate], the Ki [2] was < 10 nM.

For COc1cc2c(cc1OC)[C@H]1C[C@@H](COC(=O)N3C[C@@H]4C[C@H]3CO4)[C@H](CC(C)C)CN1CC2 [Compound 5-24, [(2R,3S,11bR)-9,10-dimethoxy-3-(2-methylpropyl)-1H,2H,3H,4H,6H,7H,11bH-pyrido[2,1-a]isoquinolin-2-yl]methyl(1S,4S)-2-oxa-5-azabicyclo[2.2.1]heptane-5-carboxylate], the Ki [2] was < 10 nM.

In the case of COc1cc2c(cc1OC)[C@H]1C[C@@H](COC(=O)[C@H]3CCN(Cc4ccccc4)C3)[C@H](CC(C)C)CN1CC2 [Compound 2-26, [(2R,3S,11bR)-9,10-dimethoxy-3-(2-methylpropyl)-1H,2H,3H,4H,6H,7H,11bH-pyrido[2,1-a]isoquinolin-2-yl]methyl (3S)-1-benzylpyrrolidine-3-carboxylate], the Ki [2] is reported as < 10 nM.

Source: patent US11053242B2, “[9,10-dimethoxy-3-(2-methylpropyl)-1H,2H,3H,4H,6H,7H,11BH-pyrido-[2,1-a]isoquinolin-2-yl]methanol and compounds, compositions and methods relating thereto” (Neurocrine Biosciences, Inc., priority 2015, dated 2021)
